Results reported in the OligoGym collection.
Where “and” joins values, the source holds several entries; their conditions need not be identical. Equal values may be shown once. After the bases stand the sugars from the 5' end (letter, count) and the backbone: PS all phosphorothioate, else s phosphorothioate and o phosphodiester by linkage. Methylation of C is not given here. e = 2'-O-(2-methoxyethyl) (MOE); k = constrained ethyl (cEt); d = 2'-deoxy (DNA)

Columns and labels:
DGAT2 = details: ASO
SOD1 = details: ASO

Sequence	target mRNA inhibition (DGAT2; HepG2, 2.5 µM)	target mRNA inhibition (DGAT2; HepG2, 10 µM)	target mRNA inhibition (DGAT2; HepG2, 0.12 µM) [%]	also measured
AAAACAGGGTACAACTCTCT (sugars e5 d10 e5, PS)	73% and 59%	91% and 87%	–	–
AAAACCAGTTACTCCACCTA (sugars e5 d10 e5, PS)	–	–	0	–
AAAACTTAGGCATGCTTCCT (sugars e5 d10 e5, PS)	53%	83%	–	–
AAAAGGAGTTTGTGTTTCCC (sugars e5 d10 e5, PS)	84% and 86%	92% and 95%	–	–
AAACACCAGCCAAGTGAAGT (sugars e5 d10 e5, PS)	–	–	9	–
AAAGCAAATAGTCTATGGTG (sugars e5 d10 e5, PS)	–	–	46	–
AAAGTCTGACATGGTGC (sugars e3 d10 e4, PS)	48%	81%	–	–
AAATCACAGAATTATCAGCA (sugars e5 d10 e5, PS)	57%	92%	–	–
AACCCACAGACACCCATGAC (sugars e5 d10 e5, PS)	–	–	4	–
AACTTAGGCATGCTTCCTCC (sugars e5 d10 e5, PS)	44%	89%	–	–
AACTTCTTCTGGACCCATCG (sugars e5 d10 e5, PS)	–	–	28	–
AAGATTCATAACTATATCTA (sugars e5 d10 e5, PS)	–	–	6	–
AAGCCTCGGTGTCCTCT (sugars e3 d10 e4, PS)	56% and 70%	87% and 90%	–	–
AAGGACAGAGGTTCAACATC (sugars e5 d10 e5, PS)	7%	67%	–	–
AAGGGTATTCTGCTCATAAA (sugars e5 d10 e5, PS)	48%	88%	–	–
AAGGTAAACTGAGGCCACCA (sugars e5 d10 e5, PS)	–	–	37	–
AAGTGACAAAGTCTATCAGG (sugars e5 d10 e5, PS)	61%	87%	–	–
AATAACCCACAGACACCCAT (sugars e5 d10 e5, PS)	–	–	0	–
AATGTCACAAGTTCACAAAC (sugars e5 d10 e5, PS)	–	–	4	–
AATTTCTTTTAAATAACCCA (sugars e5 d10 e5, PS)	–	–	0	–
ACAAAGCCCTTGCGGTTCCG (sugars e5 d10 e5, PS)	–	–	35	–
ACAACAGCAAATATACACCA (sugars e5 d10 e5, PS)	87%	56%	–	–
ACACCAGGATCTCAGTCACT (sugars e5 d10 e5, PS)	–	–	42	–
ACAGGACCCACTGGAGCACT (sugars e2 d13 e5, PS)	–	–	68	–
ACAGTGGTGATGGGCTTGGA (sugars e5 d10 e5, PS)	–	–	52	–

Sequence	target mRNA inhibition (DGAT2; HepG2, 2.5 µM)	target mRNA inhibition (DGAT2; HepG2, 10 µM)	target mRNA inhibition (DGAT2; HepG2, 0.12 µM) [%]	also measured
ACCACAGCGATAATCACACA (sugars e5 d10 e5, PS)	54%	89%	–	–
ACCAGGGCCTCCATGTACAT (sugars e2 d13 e5, PS)	–	–	50	–
ACCATAATCTGCACAGGTTC (sugars e5 d10 e5, PS)	62%	84%	–	–
ACCATTTTCACAAGGAGAAG (sugars e5 d10 e5, PS)	–	–	30	–
ACCCAACCTTTAAGGCCTAT (sugars e5 d10 e5, PS)	69% and 59% and 70%	93% and 91% and 95%	–	–
ACCCCGGAGTAGGCGGCTAT (sugars e5 d10 e5, PS)	–	–	46	–
ACTCAAAAATATACATGCTC (sugars e5 d10 e5, PS)	67%	92%	–	–
ACTTTTTCCTTCTTAAAAAA (sugars e5 d10 e5, PS)	–	–	0	–
AGACATCAGGTACTCCCTCA (sugars e5 d10 e5, PS)	–	–	35	–
AGAGGTTCAACATCCAATTT (sugars e5 d10 e5, PS)	0%	86%	–	–
AGATGGACAGGTGATTCTAA (sugars e5 d10 e5, PS)	–	–	50	–
AGCACTGACATGGTAAGTCC (sugars e5 d10 e5, PS)	75% and 68%	93% and 91%	–	–
TCTGACAAGTTTAATAC (sugars e3 k2 d7 k2 e3, PS)	–	–	–	target mRNA inhibition (SOD1; HepG2, 3 µM): 0%
TCTTCATCCTTTGGCCC (sugars e3 k2 d7 k2 e3, PS)	–	–	–	target mRNA inhibition (SOD1; HepG2, 3 µM): 15%
TGAAACAGACATTTTAACTG (sugars e5 d10 e5, PS)	–	–	–	target mRNA inhibition (SOD1; HepG2, 5 µM): 0%
TGAATTTGGATTCTTTTAAT (sugars e5 d10 e5, PS)	–	–	–	target mRNA inhibition (SOD1; HepG2, 5 µM): 0%
TGACAAGTTTAATACCC (sugars e2 k2 d8 k2 e3, PS)	–	–	–	target mRNA inhibition (SOD1; HepG2, 5 µM): 43%
TGAGATCACAGAATCTTCAA (sugars e5 d10 e5, PS)	–	–	–	target mRNA inhibition (SOD1; HepG2, 5 µM): 30%
TGAGGACCTGCACTGGT (sugars e3 k2 d7 k2 e3, PS)	–	–	–	target mRNA inhibition (SOD1; HepG2, 3 µM): 8%
TGCAGGCCTTCAGTCAGTCC (sugars e5 d10 e5, PS)	–	–	–	target mRNA inhibition (SOD1; HepG2, 5 µM): 42% and 46%
TGCCATACAGGGTTTTT (sugars e2 k2 d9 k2 e2, PS)	–	–	–	target mRNA inhibition (SOD1; HepG2, 5 µM): 22%
TGCCATACAGGGTTTTT (sugars e3 k2 d7 k2 e3, PS)	–	–	–	target mRNA inhibition (SOD1; HepG2, 3 µM): 9%
TGCCCAAGTCATCTGCT (sugars e3 k2 d7 k2 e3, PS)	–	–	–	target mRNA inhibition (SOD1; HepG2, 3 µM): 90%
TGGAATCCATGCAGGCC (sugars e3 k2 d7 k2 e3, PS)	–	–	–	target mRNA inhibition (SOD1; HepG2, 3 µM): 12%
